Source: US9828375B2, “4-position substituted pyrazolopyrimidine derivative, and use thereof in drug preparation” (Guangxi Wuzhou Pharmaceuticals (Group) Co., Ltd., priority 2012, dated 2017)
Read-outs that look alike come from different tables or passages of the source.

Legend:
[1] = target: EphA2 (Homo sapiens, UniProt P29317); experiment: Kinase inhibition activity test, isotope labeling: EphA2; type: biochemical; details: ATP 155 μM; read-out: EphA2 IC50 value (inhibitory activity value)
Experimental: The purpose of this experiment was to test the inhibitory activity of the compound of the invention for in vitro kinase with the isotope labeling method (the γ phosphate group on ATP was labeled). In this experiment, the in vitro activity inhibition of such kinases as FLT3, VEGFR2, FLT1, FLT4, RET, c-RAF, B-RAF, c-KIT, PDGFα, PDGFβ, FGFR2, FGFR1, EphA2, EphB2, SRC, ABL, ALK and Met was tested respectively. Staurosporine was reference molecule (or referred to as positive control). The kinase inhibition activity of the test compound was expressed by half-inhibitory concentration (IC50) or the kinase activity inhibition rate of the test compound at a concentration of 10 μM. The IC50 value could be obtained by calculating the kinase activity inhibition rate of the test compound at different concentrations.
20 mM 3-(N-morpholinyl)propanesulfonic acid (MOPS); 1 mM ethylenediaminetetraacetic acid (EDTA), 0.01% Brij 35 (Brij-35), 5% glycerol, 0.1% mercaptoethanol, 1 mg/mL bovine serum albumin (BSA), 10 mM manganous dichloride solution (MnCl2), 0.1 mg/mL glutamic acid/tyrosine (4:1) polypeptide (poly(Glu, Tyr)4:1), 50 μM EAIYAAPFAKKK (substrate of FLT3), 0.33 mg/mL myelin basic protein (substrate of VEGFR2), 250 μM KKKSPGEYVNIEFG (substrate of FLT1(h)), 500 μM GGEEEEYFELVKKKK (substrate of FLT4(h)), 250 μM KKKSPGEYVNIEFG (substrate of RET), 0.66 mg/mL myelin basic protein (substrate of C-RAF), 250 μM GGMEDIYFEFMGGKKK (substrate of c-Kit), 250 μM GGMEDIYFEFMGGKKK (substrate of PDGFα), 250 μM KKKSPGEYVNIEFG (substrate of FGFR1), […] GGEEEEYFELVKKKK (substrate of SRC), 50 μM EAIYAAPFAKKK (substrate of ABL), 250 μM KKKSPGEYVNIEFG (substrate of ALK), 250 μM KKKSPGEYVNIEFG (substrate of Met(h)), 10 mM magnesium acetate and γ-^33 P-ATP solution, stop buffer (3% phosphate buffer), washing buffer (75 mM phosphate solution), methanol, Filtermat A membrane, FLT3, VEGFR2, FLT3, VEGFR2, FLT1, FLT4, RET, c-RAF, B-RAF, c-KIT, PDGFRα, PDGFRβ, FGFR2, FGFR1, EphA2, EphB2, SRC, ABL, ALK, Met and other kinases, and the test compounds.
Buffers (8 mM MOPS with pH value of 7.0, 0.2 mM EDTA and 10 mM MnCl2), (5-10 mU) kinases to be tested (FLT3, VEGFR2, FLT1, FLT4, RET, c-RAF, B-RAF, c-KIT, PDGFRα, PDGFRβ, FGFR2, FGFR1, EphA2, EphB2, SRC, ABL, ALK and Met), substrates of kinases to be tested (refer to experimental materials), 10 mM magnesium acetate and γ-^33 P-ATP solution, and test compounds at different concentrations were added to a reaction tube orderly. […] Reaction was terminated with 5 μL 3% phosphate buffer finally, and 10 μL reaction solution was titrated to the Filtermat A membrane; solution was washed for 3 times with 75 mM phosphate solution with each time lasting 5 minutes, and then washed once with methanol. […]

[2] = test system: inter segmental blood vessels of transgenic zebrafish (FLK1-GFP); experiment: Angiogenesis inhibition activity test in transgenic zebrafish (FLK1-GFP); type: in vivo; details: concentration of 1 ug/mL, compared with the control group
Experimental: The new blood vessel inhibition activity of the test compounds was expressed by the inhibition degree of the test compounds for the inter segmental blood vessels of zebrafish at concentrations of 10 ug/mL, 3 ug/mL and 1 ug/mL.
Acquisition of zebrafish embryos: The zebrafish used by this laboratory was fluorescent transgenic zebrafish (FLK1: GFP). Refer to Westerfield method for breeding and cultivation of zebrafish. The day before spawns were obtained, male and female zebrafish were paired at the ratio of 1:1. On the second day, the male and female zebrafish naturally mated and spawned at a temperature of about 28° C. under sufficient illumination. Enough zebrafish embryos were collected, washed, placed into embryo culture media, and put into a 28° C. incubator for culture. The survival of embryos was identified by morphological and phylogenetic standards, and dead embryos were white and taken out timely to prevent deterioration of water quality. […]
Result observation: Thirty one hours after the zebrafish embryos were fertilized, spawns were taken out and hatched zebrafish was peeled off; and then the hatched zebrafish was put onto slide, 1‰ tricaine solution was added to narcotize the fish body, and 1.5% methylcellulose was used to fix the fish body; and the inter segmental vessels (ISV) were observed, counted and photographed under a fluorescence microscope. […]

[3] = test system: human leukemia cell line MV4-11; details: for in vivo tumor growth inhibition effect: oral intragastric q.d., MV4-11 tumors 400-500 mm^3 at start; for inhibition effect compared with positive control sorafenib: sorafenib 3 mg/kg q.d., MV4-11 model
Experimental: The cell line used was human leukemia cell line MV4-11. The drug (Sorafenib) undergoing anti-leukemia clinical trial was used as the positive control.
NOD-SCID mice at age of 6 to 8 weeks were used, and MV4-11 cells were inoculated at the subcutaneous posterior ribs of the mice at a concentration of 1×10^7/0.1 mL/mouse; after the tumors grew to 400-500 mm^3 (for about 20 days), mice (n=6) were grouped and subject to oral intragastric administration.
Observation targets: Mouse weight and long and short diameters of tumor were measured every 3 days, and tumor volume (length×width^2×0.52) was calculated to observe for diarrhea, convulsion, rash, significant weight loss and other reactions.

Chain of EphA2 (P29317 24-976): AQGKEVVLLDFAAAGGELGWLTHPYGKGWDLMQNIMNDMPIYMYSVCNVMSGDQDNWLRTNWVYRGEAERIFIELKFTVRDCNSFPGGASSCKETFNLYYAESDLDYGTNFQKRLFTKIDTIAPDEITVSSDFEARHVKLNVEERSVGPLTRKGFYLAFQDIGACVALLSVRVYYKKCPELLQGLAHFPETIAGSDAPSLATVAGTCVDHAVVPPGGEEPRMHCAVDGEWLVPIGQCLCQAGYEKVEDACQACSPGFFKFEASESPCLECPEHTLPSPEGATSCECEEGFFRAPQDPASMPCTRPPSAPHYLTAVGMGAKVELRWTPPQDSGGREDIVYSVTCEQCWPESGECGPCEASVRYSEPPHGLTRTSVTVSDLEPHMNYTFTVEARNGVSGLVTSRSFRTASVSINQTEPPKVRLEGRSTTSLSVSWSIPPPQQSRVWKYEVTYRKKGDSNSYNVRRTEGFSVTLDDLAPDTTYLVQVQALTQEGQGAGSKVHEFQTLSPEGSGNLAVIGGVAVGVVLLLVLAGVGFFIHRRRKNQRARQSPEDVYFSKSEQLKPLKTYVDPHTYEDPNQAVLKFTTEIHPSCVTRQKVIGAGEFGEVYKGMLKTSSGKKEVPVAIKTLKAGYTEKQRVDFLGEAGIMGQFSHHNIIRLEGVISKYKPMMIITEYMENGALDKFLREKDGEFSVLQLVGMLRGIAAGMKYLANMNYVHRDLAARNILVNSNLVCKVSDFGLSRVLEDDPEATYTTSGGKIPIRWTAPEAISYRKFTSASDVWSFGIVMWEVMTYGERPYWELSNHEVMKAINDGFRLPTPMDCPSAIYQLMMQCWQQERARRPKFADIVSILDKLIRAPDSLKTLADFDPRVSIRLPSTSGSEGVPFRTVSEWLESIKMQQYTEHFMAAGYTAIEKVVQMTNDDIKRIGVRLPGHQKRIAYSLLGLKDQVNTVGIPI

Compound	IC50 [1] [µM]	angiogenesis inhibition for FLK1 transgenic zebrafish [2]	in vivo tumor growth inhibition effect ([3]; daily dose of 1 mg/kg)	in vivo tumor growth inhibition effect ([3]; daily dose of 3 mg/kg or above)	inhibition effect compared with positive control sorafenib [3]
CC(C)(C)c1cc(NC(=O)Nc2ccc(Oc3ncnc4[nH]ncc34)cc2)on1 [4a-25]	< 10	–	–	–	–
O=C(Nc1ccc(Oc2ncnc3[nH]ncc23)cc1)Nc1cccc(C(F)(F)F)c1 [4a-6]	0.056	inhibit angiogenesis of zebrafish very well	–	–	–
CC(C)(C)c1cc(NC(=O)Nc2ccc(Oc3ncnc4[nH]ncc34)c(F)c2)no1 [4a-31]	< 10	inhibit angiogenesis of zebrafish very well	obviously inhibit tumor growth	extinct tumor completely	superior to the positive control (sorafenib)
O=C(Nc1ccc(Oc2ncnc3[nH]ncc23)cc1)Nc1ccc(Cl)c(C(F)(F)F)c1 [4a-2]	< 10	–	–	obviously inhibit tumor growth or extinct tumor completely	superior to the positive control (sorafenib)
